Experimental data from patent US10793531B2, “Triazole derivatives and their use as PDE4 activators” (MIRONID LIMITED, priority 2015, dated 2020).
Like-named read-outs stand apart in the source and are kept apart here.

Assay: Pharmacokinetic profile in male SD rats (Experiment 8)
Assay type: in vivo, rat
Protocol: Example A was dissolved in 5% DMA+10% Solutol+85%(10% HPBCD in saline) to afford a clear dosing solution of 1 mg/mL. The dosing solution was administered to three rats at 2 mg/kg i.v. via the foot dorsal vein and to three further rats at 10 mg/kg p.o. via oral gavage. Blood samples (ca. 150 μL) were collected at 2, 5, 20 min, 1, 2, 4, 8, 12 and 24 h after i.v. dosing and at 5, 15, 30 min, 1, 2, 4, 8, 12 and 24 h after oral dosing. The blood samples were centrifuged at 4° C. (2000 g, 5 min) within 15 min of sample collection to obtain plasma samples. Plasma samples were stored at −80° C. until analysis. The samples were analysed by UPLC-MS/MS (API 4000).

- abnormal effects observed in the rats (2 mg/kg i.v. or 10 mg/kg p.o.): No abnormal effects were observed
- half-life (rat, iv, 2 mg/kg i.v., plasma, read-out: terminal half life after i.v. dosing (converted)): 2.2 h
- bioavailability (rat, oral, 10 mg/kg p.o. vs 2 mg/kg i.v., plasma): 100%
- half-life (rat, po, 10 mg/kg p.o., plasma, read-out: terminal half life after oral dosing (converted)): 9.1 h
SMILES: CCc1nc(-c2ccc(Cl)c(F)c2)nn1CC(=O)NCc1cccc(F)c1 [Example A, N-(3-Fluorobenzyl)-2-[3-(4-chloro-3-fluorophenyl)-5-ethyl-1H-1,2,4-triazol-1-yl]acetamide]
